“Also recorded” adds a separate entry of the source.
Experiments:
E. coli sepsis in dogs [1] = experiment: Pretreatment Study: TAC given before E. coli sepsis, hemodynamics; format: in vivo, dog; conditions: for Arterial pH / HR / Hct / Pwp / SVR: mean±SE, n=6
Method: (§1) In all of the studies outlined, the animals were randomized into treatment and nontreatment placebo groups (see below). The E. coli model used in these studies was identical to that previously described (6). Sepsis was induced by the intravenous infusion of 10^10 colony forming units of live E. coli (designation 011:B4). The bacteria were suspended in normal saline solution and were given over 0.5 hour. A constant infusion of approximately 5×10^9 colony forming units/hour of E. coli was then maintained for the remainder of the experiment.
(§2) The animals (16-24 kg) were initially anesthetized with thiopental sodium (20 mg/kg, intravenously) and constantly infused with sufentanil citrate (1 ug/min) and midazolam (5 ug/kg/min) (33). Drug rates were adjusted as required to abolish the palpebral reflex. The animals were placed in the supine position; the trachea was intubated with an endotracheal tube; and the lungs were mechanically ventilated at a tidal volume of 20 ml/kg. The ventilator rate was initially set to maintain blood pH at approximately 7.35 and was increased as necessary to reverse the metabolic acidosis that developed over the course of the study. Approximately 100% oxygen was inspired, so that hypoxemia would not affect the results of the study.
(§3) Under sterile conditions, the right jugular vein was percutaneously cannulated with an introducer (Arrow International, Reading, Pa.). A thermister tipped catheter was advanced from the jugular vein into the pulmonary artery to measure mean pulmonary arterial pressure (Ppa), mean pulmonary capillary wedge pressure (Pwp), mean right atrial pressure (Pra), thermodilution cardiac output (CO, Columbus Instruments, OH), and to obtain mixed venous oxygen blood samples. Another introducer was placed into the left jugular vein for administration of intravenous saline solution and the treatment or placebo drug (see below). A polyethylene catheter was also percutaneously placed into the femoral artery to measure mean blood pressure (MAP), and to obtain samples of blood for blood gas analysis, blood hematocrit (Hct), lactate concentrations, and blood cultures in some cases. Lactate was measured by an automated lactate dehydrogenase based assay (34) and was performed only in ETS and LTS because of equipment difficulties in the Pretreatment Study.
(§4) All catheters were connected to transducers (Cobe Laboratories), were referenced relative to the left atrium and were connected to a chart recorder (Astro-Med, W Warwick, R.I.). Heart rate (HR) was measured from the recorder tracing. Stroke-volume (SV) was calculated as CO/HR. Systemic vascular resistance (SVR) was calculated from [(MAP-Pra)/CO]×80. At each measurement interval (see below), a full set of measurements included MAP, CO, Ppa, Pra, Pwp, Hct, HR, SV, and arterial and mixed venous blood samples.
(§5) In the analysis, stroke work (SW) was the primary index of cardiac performance and the primary hemodynamic endpoint chosen in the in vivo studies (35,18) (see Discussion). At constant preload, SW reflects both the decreases in afterload and the changes in contractile function that accompany sepsis. SW was determined at approximately the same Pwp at each measurement interval. The baseline Pwp usually averaged ≈8-10 mmHg, and normal saline solution was given as necessary to maintain Pwp constant over the experimental period. SW was calculated from SV (MAP-Pwp).
Pretreatment Study. In the Pretreatment Study, TAC was given before the bacteria were infused. Based on previous studies, it takes approximately 3 to 4 hours of constant bacteremia in order for myocardial depression to develop in this model (6,18). A three to five hour course of bacteremia was therefore considered necessary to determine if TAC could block the decline in SW observed at this interval. […]

E. coli sepsis in dogs [2] = experiment: Early Treatment Study: TAC given 1.5 h after sepsis induced, hemodynamics; format: in vivo, dog; conditions: for Arterial pH / HR / Hct / Lactate / Pwp / SVR: mean±SE, n=5
Method: as §1, §2, §3, §4, §5
Early Treatment Study. The purpose of this study was to assess the effect of TAC when treatment was administered during sepsis, but before myocardial depression developed. Treatment was administered at 1.5 hours after bacteremia was begun (6). Based on the lack of response of some animals in the LTS, the initial dose of TAC was increased to 400 mg, and followed by 50 mg/h mixed in 50 cc D5W over the remainder of the study. The placebo group received an identical amount of D5W over the course of the study.

[3] = Plasma concentrations of TAC in the previous in vivo experiments; design: species or system dog; conditions: in vivo experiments of Example 2; printed as low 10^−5M range
Method: The dose of TAC used in the Pretreatment Study was based on calculations previously obtained from the ventricular trabecular experiments in which it was estimated that a plasma concentration of at least 10^−5M would be required to inhibit lysozyme's depressant activity in vivo (49). Based on the molecular weight of TAC (628 MW), the average size of the dog (20 kg), and the estimated distribution space of approximately 50% of total body weight, the dose chosen was 100 mg (Sigma Corp, Canada, Oakville, Ontario) mixed in 200 ml 5% dextrose in water (D5W) that was given intravenously over 0.5 hr. After this initial dose, a dose of 50 mg mixed in 50 ml D5W was continuously infused over each hour for the remainder of the study. The placebo group received an identical amount of D5W over the course of the study.
In the present study, the inventors examined whether the administration of chitobiose after 3.5 hrs of E. coli sepsis at a relatively high dose could reverse the myocardial depression that develops in this model.

[4] = immediately after TAC infusion, before sepsis

Question: For `CC(=O)N[C@H]1[C@H](O[C@H]2[C@H](O)[C@@H](NC(C)=O)C(O)O[C@@H]2CO)O[C@H](CO)[C@@H](O[C@@H]2O[C@H](CO)[C@@H](O)[C@H](O)[C@H]2NC(C)=O)[C@@H]1O` (some centres unmarked) [TAC, N,N′,N″ triacetylglucosamine], which “CO after pretreatment, before sepsis” value (E. coli sepsis in dogs [1]) is on record?
Answer: no significant effect on CO

Question: What about the “CO at the 3 h period vs baseline” value (E. coli sepsis in dogs [1]) of the same molecule?
Answer: CO increased further at the 3 h period

Question: And the “MAP after treatment, before sepsis” value (E. coli sepsis in dogs [1])?
Answer: no effect on baseline MAP

Question: And the “MAP at the 5 hour period vs nontreated group” value (E. coli sepsis in dogs [1])?
Answer: significantly prevented the decrease in MAP; also recorded: significant increases

Question: What about the “SV, change between baseline and 5 h vs nontreated group” value (E. coli sepsis in dogs [1]) of the same molecule?
Answer: significantly different between the treated and nontreated groups; also recorded: significant increases

Question: What about the “SW, change between baseline and 5 h vs nontreated group” value (E. coli sepsis in dogs [1]) of the same molecule?
Answer: significantly different between the treated and nontreated groups; also recorded: significant increases

Question: And the “Arterial pH” value (E. coli sepsis in dogs [1]; 3 h postsepsis)?
Answer: 7.25 ± .001

Question: What about the HR (E. coli sepsis in dogs [1]; 3 h postsepsis) of the same molecule?
Answer: 105 ± 5 beats/min

Question: And the Hct (E. coli sepsis in dogs [1]; 3 h postsepsis)?
Answer: 28 ± 2%

Question: What about the Pwp (E. coli sepsis in dogs [1]; 3 h postsepsis) of the same molecule?
Answer: 9 ± .9 mmHg

Question: And the SVR (E. coli sepsis in dogs [1]; 3 h postsepsis)?
Answer: 1272 ± 221 dynes s cm^−5

Question: What about the “Arterial pH” value (E. coli sepsis in dogs [1]; 5 h postsepsis) of the same molecule?
Answer: 7.22 ± 0.1

Question: And the HR (E. coli sepsis in dogs [1]; 5 h postsepsis)?
Answer: 90 ± 5 beats/min

Question: And the Hct (E. coli sepsis in dogs [1]; 5 h postsepsis)?
Answer: 26 ± 3%

Question: What about the Pwp (E. coli sepsis in dogs [1]; 5 h postsepsis) of the same molecule?
Answer: 9.6 ± .9 mmHg

Question: And the SVR (E. coli sepsis in dogs [1]; 5 h postsepsis)?
Answer: 1504 ± 249 dynes s cm^−5

Question: And the “Arterial pH” value (E. coli sepsis in dogs [1]; baseline before TAC)?
Answer: 7.35 ± .01

Question: What about the HR (E. coli sepsis in dogs [1]; baseline before TAC) of the same molecule?
Answer: 74 ± 11 beats/min

Question: And the Hct (E. coli sepsis in dogs [1]; baseline before TAC)?
Answer: 33 ± 1%

Question: What about the Pwp (E. coli sepsis in dogs [1]; baseline before TAC) of the same molecule?
Answer: 9.3 ± .8 mmHg

Question: And the SVR (E. coli sepsis in dogs [1]; baseline before TAC)?
Answer: 2472 ± 320 dynes s cm^−5

Question: And the “Arterial pH” value (E. coli sepsis in dogs [1]; [4])?
Answer: 7.28 ± .01

Question: And the HR (E. coli sepsis in dogs [1]; [4])?
Answer: 78 ± 5 beats/min

Question: And the Pwp (E. coli sepsis in dogs [1]; [4])?
Answer: 10.4 ± 1 mmHg

Question: And the SVR (E. coli sepsis in dogs [1]; [4])?
Answer: 1872 ± 320 dynes s cm^−5

Question: And the “CO over the course of sepsis” value (E. coli sepsis in dogs [2]; 6 h)?
Answer: increased over the course of sepsis as compared with the nontreated group; also recorded: significant increases

Question: And the “SV over the course of sepsis” value (E. coli sepsis in dogs [2]; 6 h)?
Answer: showed a similar finding

Question: And the “Arterial pH” value (E. coli sepsis in dogs [2]; 6 h after sepsis initiated)?
Answer: 7.24 ± .03

Question: And the HR (E. coli sepsis in dogs [2]; 6 h after sepsis initiated)?
Answer: 94 ± 8 beats/min

Question: And the Hct (E. coli sepsis in dogs [2]; 6 h after sepsis initiated)?
Answer: 30 ± 4%

Question: And the Lactate (E. coli sepsis in dogs [2]; 6 h after sepsis initiated)?
Answer: 1 ± .1 mM

Question: And the Pwp (E. coli sepsis in dogs [2]; 6 h after sepsis initiated)?
Answer: 10.9 ± 1 mmHg

Question: What about the SVR (E. coli sepsis in dogs [2]; 6 h after sepsis initiated) of the same molecule?
Answer: 1792 ± 233 dynes s cm^−5

Question: What about the “Arterial pH” value (E. coli sepsis in dogs [2]; baseline) of the same molecule?
Answer: 7.23 ± .03

Question: And the HR (E. coli sepsis in dogs [2]; baseline)?
Answer: 68 ± 9 beats/min

Question: What about the Hct (E. coli sepsis in dogs [2]; baseline) of the same molecule?
Answer: 31 ± 2%

Question: What about the Lactate (E. coli sepsis in dogs [2]; baseline) of the same molecule?
Answer: 1 ± .1 mM

Question: And the Pwp (E. coli sepsis in dogs [2]; baseline)?
Answer: 10 ± .5 mmHg

Question: And the SVR (E. coli sepsis in dogs [2]; baseline)?
Answer: 2160 ± 581 dynes s cm^−5

Question: And the “MAP over the 6 hrs of sepsis” value (E. coli sepsis in dogs [2]; treatment group)?
Answer: increased in 4 of the 5 dogs

Question: And the “Plasma concentrations of TAC” value [3]?
Answer: ~10^−5 M

Reference: patent US7402575B2, “Methods of treating inflammation” (priority 2003, dated 2008)
